# Values quoted from earlier work as cited in patent US10420763B2, “Sublingual apomorphine” (Sunovion Pharmaceuticals Inc., priority 2009, dated 2019).
# Test system: Parkinson's patients
smiles,measurement,setting,value
CN1CCc2cccc3c2[C@H]1Cc1ccc(O)c(O)c1-3 [apomorphine],adverse effects of intranasal administration,intranasal administration (Koller et al. 2004),"transient nasal blockage, burning sensation and swollen nose and lips"
same,common side effect of subcutaneous injection,subcutaneous injection (Prietz et al. 1998),"development of nodules, which often become infected"
same,adverse effects of sublingual tablets,"sublingual administration of apomorphine tablets, prolonged use (Deffond et al. 1993)",severe stomatitis on prolonged use with buccal mucosal ulceration in half the patients treated
